Source: PubChem BioAssay (NCI)
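How tested: cells in 96-well plates exposed to compound for 48 hours at five concentrations. The concentration for 50% growth inhibition is given as GI50. At the TGI there is no net growth.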

Columns and labels:
Experiment in all cases: inhibition of tumour cell growth, NCI panel, 48 h
MOLT-4 leukemia = system: MOLT-4 leukemia
NCI-H23 lung = system: NCI-H23 lung
UACC-62 melanoma = system: UACC-62 melanoma
RPMI-8226 leukemia = system: RPMI-8226 leukemia
SF-268 CNS = system: SF-268 CNS
ACHN renal = system: ACHN renal
MDA-MB-231 breast = system: MDA-MB-231 breast
SW-620 colon = system: SW-620 colon
K-562 leukemia = system: K-562 leukemia
HCT-15 colon = system: HCT-15 colon

Compound	GI50 (MOLT-4 leukemia)	TGI (MOLT-4 leukemia)	GI50 (NCI-H23 lung)	TGI (NCI-H23 lung)	GI50 (UACC-62 melanoma)	TGI (UACC-62 melanoma)	GI50 (RPMI-8226 leukemia)	TGI (RPMI-8226 leukemia)	GI50 (SF-268 CNS)	TGI (SF-268 CNS)	GI50 (ACHN renal)	TGI (ACHN renal)	GI50 (MDA-MB-231 breast)	TGI (MDA-MB-231 breast)	GI50 (SW-620 colon)	TGI (SW-620 colon)	GI50 (K-562 leukemia)	TGI (K-562 leukemia)	GI50 (HCT-15 colon)	TGI (HCT-15 colon)
COC(=O)[C@@H](C)C[C@H](Cc1cn(C)c2ccccc12)NC(=O)c1csc([C@@H](C[C@H](C(C)C)N(C)C(=O)[C@@H](NC(=O)[C@H]2CCCCN2C)C(C)C)OC(C)=O)n1	13 nM	> 16.7 µM	0.0718 µM	> 16.7 µM	7.45 nM	> 16.7 µM	7.76 nM	> 16.7 µM	27.2 nM	> 16.7 µM	153 nM	> 16.7 µM	23.9 nM	0.966 µM	8.3 nM	> 16.7 µM	5.47 nM	> 16.7 µM	66.5 nM	> 16.7 µM
CCOC(=O)c1ccccc1OC(=O)NNc1ccccc1	465 nM	> 100 µM	30.3 µM	> 100 µM	269 nM	> 28.2 µM	1110 nM	> 100 µM	12100 nM	> 100 µM	587 nM	> 100 µM	10500 nM	> 100 µM	12400 nM	> 100 µM	225 nM	> 100 µM	862 nM	> 100 µM
NS(=O)(=O)OCC1OC(n2cnc3cncnc32)C(O)C1O (configuration not stated)	20.9 nM	2.42 µM	0.0175 µM	0.0525 µM	37.1 nM	0.133 µM	33.3 nM	0.147 µM	26.7 nM	0.279 µM	28.8 nM	0.0945 µM	10.1 nM	0.0376 µM	16.7 nM	0.155 µM	33.3 nM	1.22 µM	28.3 nM	0.105 µM
CC12OOC(c3ccccc31)c1c2ccc2ccccc12 (configuration not stated)	–	3.42 µM	–	26.6 µM	–	21.2 µM	–	6.24 µM	–	28 µM	–	3.51 µM	–	26.6 µM	–	3.94 µM	–	3.58 µM	–	5.09 µM
COC1C(CO)OC(n2c3ccccc3c3c4c(c5c6ccccc6[nH]c5c32)C(=O)NC4=O)C(O)C1O (configuration not stated)	20.2 nM	–	0.0951 µM	1.12 µM	16.9 nM	0.0902 µM	2220 nM	25.2 µM	18.9 nM	0.586 µM	< 19.1 nM	0.0928 µM	59.5 nM	0.343 µM	< 10 nM	0.616 µM	< 14.5 nM	–	524 nM	> 31.9 µM
COc1cc2nccc(Oc3ccc(NC(=O)NC4CC4)c(Cl)c3)c2cc1C(N)=O	16700 nM	> 100 µM	15.6 µM	> 74.6 µM	19100 nM	> 89.2 µM	22400 nM	> 100 µM	10300 nM	48 µM	9170 nM	> 100 µM	11500 nM	43.8 µM	97500 nM	> 100 µM	3630 nM	> 100 µM	32000 nM	> 100 µM
O=C(COc1ccc(/C=C2\COc3ccccc3C2=O)cc1)Nc1nccs1	1600 nM	3.76 µM	11.2 µM	25.4 µM	7690 nM	21.1 µM	2250 nM	6.28 µM	6810 nM	21.7 µM	16600 nM	42.3 µM	17800 nM	60 µM	3220 nM	10.2 µM	1600 nM	4.64 µM	5050 nM	23.8 µM
CCOC(=O)[C@@H](C)C[C@H](Cc1ccccc1)NC(=O)c1nc([C@@H](C[C@H](C(C)C)N(C)C(=O)[C@@H](NC(=O)[C@H]2CCCCN2C)C(C)C)OC(C)=O)sc1CCOCc1ccccc1	132 nM	5.61 µM	0.188 µM	5.6 µM	37.2 nM	1.69 µM	107 nM	2.53 µM	158 nM	2.3 µM	117 nM	3.06 µM	175 nM	1.02 µM	64 nM	> 6.6 µM	35.8 nM	1.92 µM	262 nM	1.51 µM
CCOC(=O)c1ccc(Nc2sc(C(=O)c3ccc(Br)cc3)c(N)c2C#N)cc1	4610 nM	> 100 µM	14.3 µM	> 100 µM	483 nM	> 100 µM	2570 nM	> 72.3 µM	2560 nM	> 100 µM	3240 nM	> 100 µM	2920 nM	> 100 µM	584 nM	> 100 µM	513 nM	> 100 µM	662 nM	> 100 µM
O=C(c1ccco1)c1nc2cc(C(F)(F)F)ccc2nc1C(F)(F)F	> 100000 nM	> 100 µM	> 100 µM	> 100 µM	> 100000 nM	> 100 µM	49800 nM	> 100 µM	> 100000 nM	> 100 µM	> 100000 nM	> 100 µM	99100 nM	> 100 µM	> 100000 nM	> 100 µM	> 100000 nM	> 100 µM	> 100000 nM	> 100 µM
CCCCCCCC/C=C/CCCCCCCC1=NC(C)(C)CN1CC(C)O (configuration not stated)	2050 nM	4.28 µM	3.11 µM	7.99 µM	1660 nM	3.13 µM	2280 nM	5.91 µM	1730 nM	3.16 µM	1830 nM	3.55 µM	1660 nM	3.43 µM	1800 nM	3.34 µM	1440 nM	3.27 µM	1630 nM	3.27 µM
COc1ccc(C(=O)Nc2ncc(Cc3cccc(Cl)c3)s2)cc1OC	374 nM	> 100 µM	2.51 µM	> 100 µM	17.3 nM	> 100 µM	474 nM	8.23 µM	882 nM	> 100 µM	81.2 nM	> 100 µM	1770 nM	> 100 µM	56.7 nM	> 100 µM	–	> 100 µM	63.1 nM	> 100 µM
Cc1ccc(Cl)cc1Nc1nc(C(F)(F)F)ccc1C(=O)N/N=C/c1cccnc1	1420 nM	10.7 µM	5.6 µM	20.3 µM	3250 nM	13.7 µM	2940 nM	> 32.5 µM	1550 nM	9.32 µM	3630 nM	13.1 µM	2080 nM	17.4 µM	3320 nM	14.9 µM	1710 nM	> 39 µM	693 nM	13.7 µM
Nc1c(C(=O)c2ccc(-c3cccnc3)cc2)cnn1-c1ccc(F)cc1	> 25000 nM	> 25 µM	> 22.7 µM	> 25 µM	> 21100 nM	> 25 µM	> 17500 nM	> 25 µM	> 15800 nM	> 25 µM	> 10900 nM	> 16 µM	> 13100 nM	> 25 µM	> 22400 nM	> 25 µM	> 25000 nM	> 25 µM	> 20200 nM	> 25 µM
CCOC(=O)c1ccc2c(c1)Cc1cc([N+](=O)[O-])ccc1-2	–	51.6 µM	–	> 100 µM	–	> 100 µM	–	> 100 µM	–	88 µM	–	> 100 µM	–	> 100 µM	–	> 100 µM	–	> 100 µM	–	> 100 µM
CN1CCC(COc2cnc(-c3cccc(Cn4nc(-c5cccc(C#N)c5)ccc4=O)c3)nc2)CC1	2530 nM	6.62 µM	4.93 µM	21.6 µM	2070 nM	4.54 µM	2640 nM	9.21 µM	3810 nM	16.4 µM	2380 nM	5.78 µM	2000 nM	4.43 µM	3550 nM	31.3 µM	1740 nM	4.32 µM	3470 nM	15.5 µM
CCOC(=O)C1=C(C)N=c2s/c(=C\c3ccccc3O)c(=O)n2C1c1ccc(OC)c2ccccc12 (configuration not stated)	15500 nM	> 100 µM	7.72 µM	30.7 µM	40700 nM	> 100 µM	5390 nM	31.2 µM	6230 nM	25.5 µM	3030 nM	8.87 µM	2690 nM	6.79 µM	16600 nM	> 100 µM	11400 nM	67.2 µM	8690 nM	> 100 µM
CSC1=Nc2c(c(C)c(-c3ccccc3)n2CCCN2CCCCC2)C2=NC(=O)C[C@H](C)N12	4380 nM	> 22.5 µM	3.08 µM	> 46.4 µM	3170 nM	15.4 µM	505 nM	2.25 µM	3960 nM	21.9 µM	4780 nM	43.8 µM	2590 nM	> 30.9 µM	2990 nM	18.2 µM	5080 nM	87.6 µM	8410 nM	> 53.2 µM
CSc1ccc(-c2ccccc(=O)c2O)cc1	348 nM	> 100 µM	0.688 µM	28.3 µM	397 nM	2.92 µM	428 nM	26.9 µM	625 nM	> 100 µM	397 nM	71.1 µM	603 nM	> 100 µM	386 nM	> 100 µM	447 nM	> 100 µM	172 nM	29.7 µM
C[C@]12CC[C@@H]3c4cc(OC(F)F)c(O)cc4CC[C@H]3[C@@H]1CC[C@@H]2OS(N)(=O)=O	598 nM	> 100 µM	1.46 µM	50.8 µM	403 nM	18.2 µM	568 nM	46.9 µM	3150 nM	> 100 µM	735 nM	> 100 µM	2680 nM	41.5 µM	417 nM	> 100 µM	380 nM	> 100 µM	458 nM	26.8 µM
Nc1nc2c(ncn2C2CCC(CO)O2)c(=O)n1C(=O)c1ccccc1 (configuration not stated)	–	> 100 µM	–	> 100 µM	–	> 100 µM	–	> 100 µM	–	> 100 µM	–	> 100 µM	–	> 100 µM	–	> 100 µM	–	> 100 µM	–	> 100 µM
COc1ccc(/C=C(/C(=O)N2CCN(c3ccccc3)CC2)c2cc(OC)c(OC)c(OC)c2)cc1N	524 nM	> 100 µM	2.18 µM	> 100 µM	272 nM	> 100 µM	327 nM	12 µM	711 nM	> 100 µM	612 nM	> 100 µM	411 nM	24.4 µM	401 nM	> 100 µM	316 nM	> 100 µM	388 nM	> 100 µM
CC[C@@H]1[C@@H](C)O[C@@](O)([C@@H](C)[C@H](O)[C@H](C)[C@H]2OC(=O)/C=C/C=C/[C@H](C)[C@@H]([C@@H](C)[C@@H](O)[C@H](C)[C@@]3(O)C[C@@H](O[C@H]4C[C@@H](O)[C@H](O)C(C)O4)[C@H](CC)[C@@H](C)O3)OC(=O)/C=C/C=C/[C@@H]2C)C[C@H]1O[C@@H]1C[C@@H](O)[C@H](O)C(C)O1 (some centres not stated)	93.3 nM	0.219 µM	0.0655 µM	0.149 µM	60.4 nM	0.152 µM	64.3 nM	0.153 µM	69.8 nM	0.175 µM	111 nM	0.411 µM	58.6 nM	0.139 µM	108 nM	0.454 µM	116 nM	0.378 µM	459 nM	0.924 µM
C=C(C)[C@@H]1CC[C@]2(COCCC#N)CC[C@]3(C)[C@H](CC[C@@H]4[C@@](C)(CCCNCCC#N)[C@H](C(=C)C)CC[C@]43C)[C@@H]12	7720 nM	25 µM	16.5 µM	> 50 µM	8810 nM	23.1 µM	10700 nM	31.4 µM	23500 nM	> 50 µM	13200 nM	> 50 µM	7830 nM	17.7 µM	11500 nM	31.2 µM	8940 nM	31.6 µM	7660 nM	16.6 µM
